The values below come from US10821115B2, “Compounds that inhibit Mcl-1 protein” (priority 2017, dated 2020).

Where two headings read alike, the source gives them in different places.

Assay [1] deals with recombinant human Mcl-1 (residues 171-327) / Bim interaction (Homo sapiens (Human), UniProt Q07820). As to the kind of experiment: biochemical. Type of assay: binding. The settings on record: read-out: Mcl-1 HTRF IC50. For orientation: In TR-FRET formats the signal depends on donor and acceptor labels being close together.
Sequence of recombinant human Mcl-1 (residues 171-327) / Bim interaction (Q07820 171-327): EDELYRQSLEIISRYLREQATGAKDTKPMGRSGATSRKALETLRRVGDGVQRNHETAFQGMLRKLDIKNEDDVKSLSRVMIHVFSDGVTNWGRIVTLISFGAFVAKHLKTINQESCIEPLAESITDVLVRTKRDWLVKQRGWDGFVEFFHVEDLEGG
The test system of assay [2] is human multiple myeloma cell line, OPM-2. Kind of assay: Cell viability assay (OPM-2 10 FBS), CellTiter-Glo. Type of assay: cell-based. In a few lines:
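Serially diluted test compounds are incubated 16 h with cells (3000/well) in RPMI 1640 supplemented with 10% FBS. Viability is then measured by luminescence and IC50 calculated by 4-parameter logistic fit.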

The mark [3] stands for this setting: 0.1 nM Mcl-1(171-327), 0.05 nM biotin-Bim (51-76).
Setting [4] is: Homo sapiens, OPM-2, 16 h, read-out: OPM-2 10% FBS IC50 IP, OPM-2 cells, 10% FBS, 16 h incubation.
Setting [5] is: TR-FRET, Mcl-1(171-327) / biotin-Bim (51-76).
Setting [6] is: Homo sapiens, OPM-2, 16 h, read-out: OPM-2 10% FBS IC50 IP, OPM-2 cells, 10% FBS, 16 h, CellTiter-Glo.
[7] abbreviates: read-out: OPM-2 10% FBS IC50 IP, OPM-2 cells, 10% FBS, 16 h, CellTiter-Glo.

Broadly, the IC50 is the concentration that inhibits the measured activity by half.

For the compound `CO[C@]1(CN2CC3(C2)CS(=O)(=O)C3)/C=C/C[C@H](C)[C@@H](C)S(=O)(=O)NC(=O)c2ccc3c(c2)N(C[C@@H]2CC[C@H]21)C[C@@]1(CCCc2cc(Cl)ccc21)CO3` [Example 224, (1S,3′R,6′R,7′R,8′E,11′S,12′R)-6-chloro-7′-((2,2-dioxido-2-thia-6-azaspiro[3.3]hept-6-yl)methyl)-7′-methoxy-11′,12′-dimethyl-3,4-dihydro-2H,15′H-spiro[naphthalene-1,22′-[20]oxa[13]thia[1,14]diazatetracyclo [14.7.2.0~3,6~.0~19,24~]pentacosa[8,16,18,24]tetraen]-15′-one 13′,13′-dioxide], the IC50 in assay [1] (setting [3]) turned out to be 0.127 nM; in assay [2] (setting [4]) it was 157 nM.
For `CO[C@@]1(CN2CCn3nncc3C2)/C=C/C[C@H](C)[C@@H](C)S(=O)(=O)NC(=O)c2ccc3c(c2)N(C[C@@H]2CC[C@H]21)C[C@@]1(CCCc2cc(Cl)ccc21)CO3` [Example 207, (1S,3′R,6′R,7′S,8′E,11′S,12′R)-6-chloro-7′-(6,7-dihydro[1,2,3]triazolo[1,5-a]pyrazin-5(4H)-ylmethyl)-7′-methoxy-11′,12′-dimethyl-3,4-dihydro-2H,15′H-spiro[naphthalene-1,22′-[20]oxa[13]thia[1,14]diazatetracyclo [14.7.2.0~3,6~.0~19,24~]pentacosa[8,16,18,24]tetraen]-15′-one 13′,13′-dioxide] the same measures were 0.137 nM and 395 nM.
Turning to `C[C@@H]1[C@@H](C)C/C=C/[C@](O)(c2cccnn2)[C@@H]2CC[C@H]2CN2C[C@@]3(CCCc4cc(Cl)ccc43)COc3ccc(cc32)C(=O)NS1(=O)=O` [Example 100349, (1S,3′R,6′R,7′R,8′E,11′S,12′R)-6-chloro-7′-hydroxy-11′,12′-dimethyl-7′-(3-pyridazinyl)-3,4-dihydro-2H,15′H-spiro[naphthalene-1,22′-[20]oxa[13]thia[1,14]diazatetracyclo [14.7.2.0~3,6~.0~19,24~]pentacosa[8,16,18,24]tetraen]-15′-one 13′,13′-dioxide], the IC50 stood at 1.15 nM in assay [1] (setting [5]) and 58 nM in assay [2] (setting [6]).
Consider `C=CC[C@@]1(O)/C=C/C[C@H](C)[C@@H](C)S(=O)(=O)NC(=O)c2ccc3c(c2)N(C[C@@H]2CC[C@H]21)C[C@@]1(CCCc2cc(Cl)ccc21)CO3` (stereo in doubt) [Example 100127], for which the half-inhibitory concentration (IC50) in assay [1] (setting [5]) is 0.175 nM; in assay [2] (setting [7]), 108 nM.
For `CO[C@@]1(C2SCCCS2)CCC[C@H](C)[C@@H](C)S(=O)(=O)NC(=O)c2ccc3c(c2)N(C[C@@H]2CC[C@H]21)C[C@@]1(CCCc2cc(Cl)ccc21)CO3` [Example 100254, (1S,3′R,6′R,7′S,11′S,12′R)-6-chloro-7′-(1,3-dithian-2-yl)-7′-methoxy-11′,12′-dimethyl-3,4-dihydro-2H,15′H-spiro[naphthalene-1,22′-[20]oxa[13]thia[1,14]diazatetracyclo [14.7.2.0~3,6~.0~19,24~]pentacosa[16,18,24]trien]-15′-one 13′,13′-dioxide], the IC50 in assay [1] (setting [5]) is 4.07 nM; in assay [2] (setting [7]), 2150 nM.
Turning to `CC(C)C[C@@]1(O)/C=C/C[C@H](C)[C@@H](C)S(=O)(=O)NC(=O)c2ccc3c(c2)N(C[C@@H]2CC[C@H]21)C[C@@]1(CCCc2cc(Cl)ccc21)CO3` [Example 100220, (1S,3′R,6′R,7′R,8′E,11′S,12′R)-6-chloro-7′-hydroxy-11′,12′-dimethyl-7′-(2-methylpropyl)-3,4-dihydro-2H,15′H-spiro[naphthalene-1,22′-[20]oxa[13]thia[1,14]diazatetracyclo [14.7.2.0~3,6~.0~19,24~]pentacosa[8,16,18,24]tetraen]-15′-one 13′,13′-dioxide], the IC50 worked out at 7.42 nM in assay [1] (setting [5]) and 6840 nM in assay [2] (setting [6]).
Turning to `C[C@@H]1[C@@H](C)C/C=C/[C@@](O)(C#CCCN2CCOCC2)[C@@H]2CC[C@H]2CN2C[C@@]3(CCCc4cc(Cl)ccc43)COc3ccc(cc32)C(=O)NS1(=O)=O` [Example 100327, (1S,3′R,6′R,7′S,8′E,11′S,12′R)-6-chloro-7′-hydroxy-11′,12′-dimethyl-7′-(4-(4-morpholinyl)-1-butyn-1-yl)-3,4-dihydro-2H,15′H-spiro[naphthalene-1,22′-[20]oxa[13]thia[1,14]diazatetracyclo [14.7.2.0~3,6~.0~19,24~]pentacosa[8,16,18,24]tetraen]-15′-one 13′,13′-dioxide], the IC50 turned out to be 0.295 nM in assay [1] (setting [5]) and 550 nM in assay [2] (setting [7]).
`C[C@@H]1[C@@H](C)C/C=C/[C@](O)(c2ccncc2F)[C@@H]2CC[C@H]2CN2C[C@@]3(CCCc4cc(Cl)ccc43)COc3ccc(cc32)C(=O)NS1(=O)=O` [Example 100368, (1S,3′R,6′R,7′R,8′E,11′S,12′R)-6-chloro-7′-(3-fluoro-4-pyridinyl)-7′-hydroxy-11′,12′-dimethyl-3,4-dihydro-2H,15′H-spiro[naphthalene-1,22′-[20]oxa[13]thia[1,14]diazatetracyclo [14.7.2.0~3,6~.0~19,24~]pentacosa[8,16,18,24]tetraen]-15′-one 13′,13′-dioxide]: the IC50 in assay [1] (setting [5]) is 0.377 nM; in assay [2] (setting [6]) it was 611 nM.
Take `CO[C@@]1(CN2CCN3CCOC[C@@H]3C2)/C=C/[C@H](C)[C@H](C)CS(=O)(=O)NC(=O)c2ccc3c(c2)N(C[C@@H]2CC[C@H]21)C[C@@]1(CCCc2cc(Cl)ccc21)CO3` [Example 156, (1S,3′R,6′R,7′S,8′E,10′S,11′S)-6-chloro-7′-((9aS)-hexahydropyrazino[2,1-c][1,4]oxazin-8(1H)-ylmethyl)-7′-methoxy-10′,11′-dimethyl-3,4-dihydro-2H,15′H-spiro[naphthalene-1,22′-[20]oxa[13]thia[1,14]diazatetracyclo [14.7.2.0~3,6~.0~19,24~]pentacosa[8,16,18,24]tetraen]-15′-one 13′,13′-dioxide]: the figures for the IC50 in assay [1] (setting [3]) and in assay [2] (setting [4]) were 0.096 nM and 62 nM, respectively.
On to `COCC(=O)N1CCN(C[C@]2(OC)/C=C/C[C@H](C)[C@@H](C)S(=O)(=O)NC(=O)c3ccc4c(c3)N(C[C@@H]3CC[C@H]32)C[C@@]2(CCCc3cc(Cl)ccc32)CO4)CC1` [Example 246, (1S,3′R,6′R,7′S,8′E,11′S,12′R)-6-chloro-7′-methoxy-7′-((4-(methoxyacetyl)-1-piperazinyl)methyl)-11′,12′-dimethyl-3,4-dihydro-2H,15′H-spiro[naphthalene-1,22′-[20]oxa[13]thia[1,14]diazatetracyclo [14.7.2.0~3,6~.0~19,24~]pentacosa[8,16,18,24]tetraen]-15′-one 13′,13′-dioxide], for which the IC50 in assay [1] (setting [3]) was determined as 0.099 nM; in assay [2] (setting [4]), 138 nM.
Consider `C=CCC[C@@]1(O)/C=C/C[C@H](C)[C@@H](C)S(=O)(=O)NC(=O)c2ccc3c(c2)N(C[C@@H]2CC[C@H]21)C[C@@]1(CCCc2cc(Cl)ccc21)CO3` [Example 100157, (1S,3′R,6′R,7′R,8′E,11′S,12′R)-7′-(3-buten-1-yl)-6-chloro-7′-hydroxy-11′,12′-dimethyl-3,4-dihydro-2H,15′H-spiro[naphthalene-1,22′-[20]oxa[13]thia[1,14]diazatetracyclo [14.7.2.0~3,6~.0~19,24~]pentacosa[8,16,18,24]tetraen]-15′-one 13′,13′-dioxide], for which the results for the IC50 in assay [1] (setting [5]) and in assay [2] (setting [7]) were 4.81 nM and 3210 nM, respectively.
Regarding `CO[C@@]1([C@H](C)O)CCC[C@H](C)[C@@H](C)S(=O)(=O)NC(=O)c2ccc3c(c2)N(C[C@@H]2CC[C@H]21)C[C@@]1(CCCc2cc(Cl)ccc21)CO3` (single isomer, unassigned) [Example 100482], the values for the IC50 in assay [1] (setting [5]) and in assay [2] (setting [6]) were 0.183 nM and 105 nM, respectively.
For `COc1cccc([C@]2(O)/C=C/C[C@H](C)[C@@H](C)S(=O)(=O)NC(=O)c3ccc4c(c3)N(C[C@@H]3CC[C@H]32)C[C@@]2(CCCc3cc(Cl)ccc32)CO4)n1` [Example 100191, (1S,3′R,6′R,7′S,8′E,11′S,12′R)-6-chloro-7′-hydroxy-7′-(6-methoxy-2-pyridinyl)-11′,12′-dimethyl-3,4-dihydro-2H,15′H-spiro[naphthalene-1,22′-[20]oxa[13]thia[1,14]diazatetracyclo [14.7.2.0~3,6~.0~19,24~]pentacosa[8,16,18,24]tetraen]-15′-one 13′,13′-dioxide] the same measures were 1.6 nM and 557 nM.
Take `COCC1(N(C)C(=O)C[C@]2(OC)/C=C/C[C@H](C)[C@@H](C)S(=O)(=O)NC(=O)c3ccc4c(c3)N(C[C@@H]3CC[C@H]32)C[C@@]2(CCCc3cc(Cl)ccc32)CO4)CC1` [Example 100396, 2-((1S,3′R,6′R,7′S,8′E,11′S,12′R)-6-chloro-7′-methoxy-11′,12′-dimethyl-13′,13′-dioxido-15′-oxo-3,4-dihydro-2H-spiro[naphthalene-1,22′-[20]oxa[13]thia[1,14]diazatetracyclo [14.7.2.0~3,6~.0~19,24~]pentacosa[8,16,18,24]tetraen]-7′-yl)-N-(1-(methoxymethyl)cyclopropyl)-N-methylacetamide]: the IC50 in assay [1] (setting [5]) turned out to be 0.272 nM; in assay [2] (setting [6]) it was 1470 nM.
Consider `C[C@@H]1[C@@H](C)CCC[C@@](O)(CS(=O)(=O)N(C)C)[C@@H]2CC[C@H]2CN2C[C@@]3(CCCc4cc(Cl)ccc43)COc3ccc(cc32)C(=O)NS1(=O)=O` [Example 100099, 1-((1S,3′R,6′R,7′S,11′S,12′R)-6-chloro-7′-hydroxy-11′,12′-dimethyl-13′,13′-dioxido-15′-oxo-3,4-dihydro-2H-spiro[naphthalene-1,22′-[20]oxa[13]thia[1,14]diazatetracyclo [14.7.2.0~3,6~.0~19,24~]pentacosa[16,18,24]trien]-7′-yl)-N,N-dimethylmethanesulfonamide], for which the IC50 was 0.659 nM in assay [1] and 349 nM in assay [2] (setting [7]).
